Where two headings read alike, the source gives them in different places.
Key:
[1] = system: Leptosphaeria nodorum—LEPTNO; assay: Glume Blotch of Wheat, in vivo whole plant, 24 Hour Protectant; conditions: Leptosphaeria, 24 h, inoculated after 24 hours, read-out: LEPTNO in vivo 1 Day Protectant
[2] = system: Ustilago maydis (USTIMA); assay: microbe, parasite or virus in culture; type: cell-based
[3] = system: Rhizoctonia solani (RHIZSO); assay: microbe, parasite or virus in culture; type: cell-based
[4] = wheat plants sprayed at 100 ppm, control vs untreated plants
[5] = wheat (cultivar Yuma), sprayed at 100 ppm, control of fungal infection vs untreated plants

Row | SMILES | pest or weed control at 100 ppm [1, 4] | USTIMA in vitro Growth Inhibition [2] | pest or weed control at 100 ppm [1, 5] | RHIZSO in vitro Growth Inhibition [3]
1 | COc1ccnc(C(=O)Nc2ccc(OC3CC(C)(C)CC(C)(C)C3)cc2)c1O [Compound 458] | 75 to 100% |  |  | 
2 | COc1ccnc(C(=O)N[C@H]2CC[C@H](Oc3ccc(C(F)(F)F)cc3)CC2)c1O [Compound 270] |  | + (key: +: at least 80% growth inhibition; −: less than 80% growth inhibition) | 75 to 100% | + (key: +: at least 80% growth inhibition; −: less than 80% growth inhibition)
3 | COc1ccnc(C(=O)N[C@H]2COC(=O)[C@H](Cc3ccccc3)[C@@H](OC(=O)OC(C)C)[C@H](C)OC2=O)c1O [Compound 401] |  |  | 75 to 100% | 
4 | COc1ccnc(C(=O)NC2CC(C)(C)CC(C)(C(=O)CCCc3ccccc3)C2)c1O (centres unmarked) [Compound 276] |  | − (key: +: at least 80% growth inhibition; −: less than 80% growth inhibition) | 75 to 100% | − (key: +: at least 80% growth inhibition; −: less than 80% growth inhibition)
5 | O=C(Nc1ccc(Oc2ccccc2)cc1)c1cccnc1O [Compound 522] | 75 to 100% |  |  | 
6 | CC(C)C(=O)O[C@H]1[C@H](C)OC(=O)[C@@H](NC(=O)c2nccnc2O)COC(=O)[C@@H]1Cc1ccccc1 [Compound 534] | 75 to 100% |  |  | 
7 | COc1ccnc(C(=O)NC2CSCC(c3ccccc3)C2)c1O (centres unmarked) [Compound 324] |  | + (key: +: at least 80% growth inhibition; −: less than 80% growth inhibition) | 75 to 100% | + (key: +: at least 80% growth inhibition; −: less than 80% growth inhibition)
8 | COc1ccnc(C(=O)Nc2ccc(OCc3ccc(C(F)(F)F)cc3)cc2)c1O [Compound 448] |  |  | 75 to 100% | 
9 | COc1ccnc(C(=O)N[C@H]2COC(=O)[C@H](Cc3ccccc3)[C@@H](OC(=O)C3CCCC3)[C@H](C)OC2=O)c1O [Compound 391] |  |  | 75 to 100% | 
10 | C=C(C)C(=O)O[C@H]1[C@H](C)OC(=O)[C@@H](NC(=O)c2nccc(OC)c2O)COC(=O)[C@@H]1Cc1ccccc1 [Compound 386] |  |  | 75 to 100% | 
11 | CC(C)C(=O)O[C@H]1[C@H](C)OC(=O)[C@@H](NC(=O)c2nscc2O)COC(=O)[C@@H]1Cc1ccccc1 [Compound 550] | 75 to 100% |  |  | 
12 | COc1ccnc(C(=O)N[C@H]2COC(=O)[C@H](Cc3ccccc3)[C@@H](OC(=O)NC(C)(C)C)[C@H](C)OC2=O)c1O [Compound 400] |  |  | 75 to 100% | 
13 | COc1ccnc(C(=O)N[C@H]2COC(=O)[C@H](Oc3ccccc3)[C@@H](OC(=O)C(C)C)[C@H](C)OC2=O)c1O [Compound 403] |  |  | 75 to 100% | 
14 | COc1ccnc(C(=O)N[C@H]2COC(=O)[C@H](Cc3ccccc3)[C@@H](OC(C)=O)[C@H](C)OC2=O)c1O [Compound 385] |  |  | 75 to 100% | 
15 | COc1ccnc(C(=O)N[C@H]2COC(=O)[C@H](Cc3ccccc3)[C@@H](OC(=O)c3ccccc3)[C@H](C)OC2=O)c1O [Compound 394] |  |  | 75 to 100% | 
16 | COc1ccnc(C(=O)Nc2ccc(OC3CC(C)(C)OC(C)(C)C3)cc2)c1O [Compound 459] | 75 to 100% |  |  | 
17 | COc1ccnc(C(=O)N[C@H]2COC(=O)[C@H](Cc3ccccc3)[C@@H](OC(=O)C(C)(C)C)[C@H](C)OC2=O)c1O [Compound 388] |  |  | 75 to 100% | 
18 | CO/N=C(/c1ccc(NC(=O)c2nccc(OC)c2O)cc1)c1ccc(C(F)(F)F)cc1 [Compound 409] |  |  | 75 to 100% | 
19 | COc1nc(O)c(C(=O)N[C@H]2COC(=O)[C@H](Cc3ccccc3)[C@@H](OC(=O)C(C)C)[C@H](C)OC2=O)nc1Cl [Compound 537] | 75 to 100% |  |  | 
20 | COc1ccnc(C(=O)N[C@H]2COC(=O)[C@H](Cc3ccccc3)[C@@H](OC(=O)NC(C)C)[C@H](C)OC2=O)c1O [Compound 399] |  |  | 75 to 100% | 
21 | COc1ccnc(C(=O)N[C@H]2COC(=O)[C@H](Cc3ccccc3)[C@@H](OC(=O)C3CCCCC3)[C@H](C)OC2=O)c1O [Compound 392] |  |  | 75 to 100% | 
22 | COc1ccnc(C(=O)N[C@H]2COC(=O)[C@H](Cc3ccccc3)C[C@H](C)OC2=O)c1O [Compound 382] |  |  | 75 to 100% | 
23 | COc1ccnc(C(=O)Nc2cccc(Oc3ccc(Cl)cc3)c2)c1O [Compound 440] |  |  | 75 to 100% | 

Row | SMILES | pest or weed control at 100 ppm [1, 4] | USTIMA in vitro Growth Inhibition [2] | pest or weed control at 100 ppm [1, 5] | RHIZSO in vitro Growth Inhibition [3]
24 | Cc1nc(O)c(C(=O)N[C@H]2COC(=O)[C@H](Cc3ccccc3)[C@@H](OC(=O)C(C)C)[C@H](C)OC2=O)nc1C [Compound 536] | 75 to 100% |  |  | 
25 | CC(C)C(=O)O[C@H]1[C@H](C)OC(=O)[C@@H](NC(=O)c2ccncc2O)COC(=O)[C@@H]1Cc1ccccc1 [Compound 513] | 75 to 100% |  |  | 
26 | COc1ccnc(C(=O)NC(C(=O)OCC(C)C)C(C)OC(=O)C(C)Cc2ccccc2)c1O (centres unmarked) [Compound 360] |  |  | 75 to 100% | 
27 | COc1ccnc(C(=O)NC2CC(C)(C)C(Cl)C(Cl)[C@H](C)[C@H]2C)c1O (some centres unmarked) [Compound 281] |  | − (key: +: at least 80% growth inhibition; −: less than 80% growth inhibition) |  | − (key: +: at least 80% growth inhibition; −: less than 80% growth inhibition)
28 | COc1ccnc(C(=O)NC2CCN(Cc3ccc(C)cc3)CC2)c1O [Compound 306] |  | − (key: +: at least 80% growth inhibition; −: less than 80% growth inhibition) |  | − (key: +: at least 80% growth inhibition; −: less than 80% growth inhibition)
29 | Cc1ccc(C(=O)N[C@H]2COC(=O)[C@H](Cc3ccccc3)[C@@H](OC(=O)C(C)C)[C@H](C)OC2=O)c(O)n1 [Compound 525] | 75 to 100% |  |  | 
30 | COc1ccnc(C(=O)Nc2ccc(Oc3ccc(C)cc3)cc2)c1O [Compound 417] |  |  | 75 to 100% | 
31 | CCCCCCCCCNC(=O)c1ncccc1O [Compound 201] |  | − (key: +: at least 80% growth inhibition; −: less than 80% growth inhibition) |  | − (key: +: at least 80% growth inhibition; −: less than 80% growth inhibition)
32 | CC1(C)CC(NC(=O)c2ncccc2O)CC(C)(C)C1=O [Compound 205] |  | − (key: +: at least 80% growth inhibition; −: less than 80% growth inhibition) |  | − (key: +: at least 80% growth inhibition; −: less than 80% growth inhibition)
33 | COc1ccnc(C(=O)N[C@H]2COC(=O)[C@H](Cc3ccccc3)[C@@H](OC(=O)C3CC3)[C@H](C)OC2=O)c1O [Compound 387] |  |  | 75 to 100% | 
34 | COc1ccnc(C(=O)NC2CC(C)(C)CC(C)(C(=O)c3ccccc3)C2)c1O (centres unmarked) [Compound 260] |  | − (key: +: at least 80% growth inhibition; −: less than 80% growth inhibition) |  | − (key: +: at least 80% growth inhibition; −: less than 80% growth inhibition)
35 | O=C(NCc1cccc(Cl)c1)c1ncccc1O [Compound 219] |  | + (key: +: at least 80% growth inhibition; −: less than 80% growth inhibition) |  | + (key: +: at least 80% growth inhibition; −: less than 80% growth inhibition)
36 | O=C(Nc1cccc(Cl)c1)c1ncccc1O [Compound 212] |  | − (key: +: at least 80% growth inhibition; −: less than 80% growth inhibition) |  | − (key: +: at least 80% growth inhibition; −: less than 80% growth inhibition)
37 | O=C(NCc1ccc(Cl)cc1)c1ncccc1O [Compound 220] |  | + (key: +: at least 80% growth inhibition; −: less than 80% growth inhibition) |  | + (key: +: at least 80% growth inhibition; −: less than 80% growth inhibition)
38 | CC(NC(=O)c1ncccc1O)c1ccccc1 (centres unmarked) [Compound 229] |  | − (key: +: at least 80% growth inhibition; −: less than 80% growth inhibition) |  | − (key: +: at least 80% growth inhibition; −: less than 80% growth inhibition)
39 | CC1(C)CC(NC(=O)c2ncccc2O)CC(C)(C2CC2)C1 (centres unmarked) [Compound 204] |  | − (key: +: at least 80% growth inhibition; −: less than 80% growth inhibition) |  | − (key: +: at least 80% growth inhibition; −: less than 80% growth inhibition)
40 | CCC1(C)OCC(NC(=O)c2nccc(OC)c2O)CO1 (centres unmarked) [Compound 314] |  | − (key: +: at least 80% growth inhibition; −: less than 80% growth inhibition) |  | − (key: +: at least 80% growth inhibition; −: less than 80% growth inhibition)
41 | O=C(Nc1cccc(C(F)(F)F)c1)c1ncccc1O [Compound 214] |  | − (key: +: at least 80% growth inhibition; −: less than 80% growth inhibition) |  | − (key: +: at least 80% growth inhibition; −: less than 80% growth inhibition)
42 | COc1ccnc(C(=O)Nc2ccc(Sc3cccc(C(F)(F)F)c3)cc2)c1O [Compound 445] |  |  | 75 to 100% | 
43 | COc1ccnc(C(=O)NC2C3(C)CCC(C3)C2(C)C)c1O (centres unmarked) [Compound 288] |  | − (key: +: at least 80% growth inhibition; −: less than 80% growth inhibition) |  | + (key: +: at least 80% growth inhibition; −: less than 80% growth inhibition)
44 | COc1ccnc(C(=O)NC2CCCC2O)c1O (centres unmarked) [Compound 248] |  | − (key: +: at least 80% growth inhibition; −: less than 80% growth inhibition) |  | − (key: +: at least 80% growth inhibition; −: less than 80% growth inhibition)
45 | COc1ccnc(C(=O)N[C@H]2C(O)[C@@H]3CC[C@H]2[C@@H]2CCCC[C@@H]23)c1O (some centres unmarked) [Compound 293] |  | − (key: +: at least 80% growth inhibition; −: less than 80% growth inhibition) |  | − (key: +: at least 80% growth inhibition; −: less than 80% growth inhibition)
46 | COc1ccnc(C(=O)NC2CCN(C(=O)CCc3ccccc3)CC2)c1O [Compound 309] |  | − (key: +: at least 80% growth inhibition; −: less than 80% growth inhibition) |  | − (key: +: at least 80% growth inhibition; −: less than 80% growth inhibition)
